Values of other authors as cited in patent publication US20240050950A1, “GRADIENT-BASED MICROFLUIDIC CIRCUIT, DEVICE, AND METHOD FOR PERFORMING AN ASSAY” (priority 2020, published 2024).
Where a name gives a salt, the structure may show the parent alone. Numbered stars: 1 amine (or outer) side, 2 acyl side, 3 side chain; on linkers, the order of the positions; unused ones are H or OH. Bridge positions count the residues as written; N and C are the ends. Square brackets hold non-standard residues; d marks the D form. Peptide text beside a SMILES is read from it. X1 = CC(C)CCCCCCCCC[C@H](CC(=O)[*:1])O[*:2]

conditions: Table 1, antimicrobial agents/drugs; cited from earlier work

SMILES	Molar volume [cm^3]
CO[C@@H]1[C@@H](OC(N)=O)[C@@H](O)[C@H](Oc2ccc3c(O)c(NC(=O)c4ccc(O)c(CC=C(C)C)c4)c(=O)oc3c2C)OC1(C)C [Novobiocin]	430.9 ± 5.0
C[C@@H]1[C@H](O)[C@@H](C)/C=C/C=C/CC/C=C/C=C/C=C/C=C/C(O[C@H]2O[C@H](C)[C@@H](O)[C@H](N)[C@@H]2O)CC2O[C@](O)(CC(O)C(O)CCC(O)CC(O)CC(O)CC(=O)O[C@H]1C)CC(O)C2C(=O)O (stereo partly shown) [Nystatin (Fungicidin, Mycostatin), Nystatin]	696.1 ± 5.0
C[C@@H]1Cc2c(Cl)cc(C(=O)N[C@@H](Cc3ccccc3)C(=O)O)c(O)c2C(=O)O1 [Ochratoxin A]	283.2 ± 3.0
CC[C@@H]1/C=C/C=C/C[C@H](C)[C@H](O)[C@](C)(O)C(=O)[C@H](C)[C@@H](O)[C@H](C)C(=O)[C@H](C)[C@@H](O)[C@H](C)/C=C/C(=O)O[C@H]2[C@@H](C)[C@@H](CC1)O[C@@]1(CC[C@@H](C)[C@@H](C[C@H](C)O)O1)[C@@H]2C [Oligomycin A]	688.2 ± 5.0
Cc1onc(-c2ccccc2)c1C(=O)N[C@@H]1C(=O)N2[C@@H]1SC(C)(C)[C@@H]2C(=O)O [Oxacillin]	268.4 ± 5.0
CCn1cc(C(=O)O)c(=O)c2cc3c(cc21)OCO3 [Oxolinic acid]	176.1 ± 3.0
N=C1Sc2ccccc2C2=NCCCN12 [PD 404, 182, PD 404,182]	150.9 ± 7.0
COc1ccc(C[C@H](N)C(=O)N[C@H]2[C@@H](O)[C@H](n3cnc4c(N(C)C)ncnc43)O[C@@H]2CO)cc1 [PUROMYCIN]	311.7 ± 7.0
O=C1C=C2C(=CCOC2O)O1 (stereo not shown) [Patulin]	101.3 ± 5.0
N=C(N)c1ccc(OCCCCCOc2ccc(C(=N)N)cc2)cc1 [Pentamidine]	281.4 ± 7.0
c1ccc2nc3ccccc3nc2c1 [Phenazine]	144.1 ± 3.0
C[C@@H]1O[C@@H]1P(=O)(O)O [Phosphomycin (Fosfomycin), Phosphomycin]	88.4 ± 5.0
CCn1cc(C(=O)O)c(=O)c2cnc(N3CCNCC3)nc21 [Pipemidic acid]	219.6 ± 3.0
COc1cccc2c1C(=O)c1c(O)c3c(c(O)c1C2=O)C[C@@](O)(C(=O)CO)C[C@@H]3O[C@H]1C[C@H](N)[C@H](O[C@@H]2CCCCO2)[C@H](C)O1 [Pirarubicin (THP), Pirarubicin]	413.3 ± 5.0
O=C(C1CCCCC1)N1CC(=O)N2CCc3ccccc3C2C1 (stereo not shown) [Praziquantel]	254.2 ± 5.0
CCCc1cc(C(N)=S)ccn1 [Prothionamide]	158.5 ± 3.0
NC(=O)c1cnccn1 [Pyrazinecarboxamide]	87.7 ± 7.0

SMILES	Molar volume [cm^3]
COc1ccc2nc3cc(Cl)ccc3c(Nc3cc(CN4CCCC4)c(O)c(CN4CCCC4)c3)c2n1 [Pyronaridine]	381.8 ± 3.0
O=[N+]([O-])c1c(Cl)cccc1-c1c[nH]cc1Cl [Pyrrolnitrin]	168.7 ± 3.0
C[C@@H]1C[C@H]2O[C@@H]2/C=C\C=C\C(=O)Cc2c(Cl)c(O)cc(O)c2C(=O)O1 [Radicicol]	267.3 ± 3.0
NC(=O)c1ncn([C@@H]2O[C@H](CO)[C@@H](O)[C@H]2O)n1 [Ribavirin]	117.0 ± 7.0
NC[C@H]1O[C@H](O[C@H]2[C@H](O[C@@H]3O[C@H](CO)[C@@H](O)[C@H]3O)[C@@H](O)[C@H](N)C[C@@H]2N)[C@H](N)[C@@H](O)[C@@H]1O [Ribostamycin]	283.6 ± 5.0
CO[C@H]1/C=C/O[C@@]2(C)Oc3c(C)c(O)c4c(c3C2=O)C2=NC3(CCN(CC(C)C)CC3)NC2=C(NC(=O)/C(C)=C\C=C\[C@H](C)[C@H](O)[C@@H](C)[C@@H](O)[C@@H](C)[C@H](OC(C)=O)[C@@H]1C)C4=O [Rifabutin]	632.4 ± 7.0
CO[C@H]1/C=C/O[C@@]2(C)Oc3c(C)c(O)c4c(O)c(c(/C=N/N5CCN(C6CCCC6)CC5)c(O)c4c3C2=O)NC(=O)/C(C)=C\C=C\[C@H](C)[C@H](O)[C@@H](C)[C@@H](O)[C@@H](C)[C@H](OC(C)=O)[C@@H]1C [Rifapentine (DL 473), Rifapentine]	648.0 ± 7.0
CC[C@H]1OC(=O)[C@H](C)[C@@H](O[C@H]2C[C@@](C)(OC)[C@@H](O)[C@H](C)O2)[C@H](C)[C@@H](O[C@@H]2O[C@H](C)C[C@H](N(C)C)[C@H]2O)[C@](C)(O)C[C@@H](C)/C(=N\OCOCCOC)[C@H](C)[C@@H](O)[C@]1(C)O [Roxithromycin]	666.3 ± 7.0
CC[C@@H](C(=O)[C@@H](C)[C@@H](O)[C@H](C)[C@@H]1O[C@@H]([C@@H](CC)C(=O)O)CC[C@@H]1C)[C@H]1O[C@]2(C=C[C@@H](O)[C@]3(CC[C@@](C)([C@H]4CC[C@](O)(CC)[C@H](C)O4)O3)O2)[C@H](C)C[C@@H]1C [Salinomycin]	633.5 ± 5.0
C/C=C/C=C/C(=O)O [Sorbic acid]	109.4 ± 3.0
CO[C@H]1[C@@H](O)[C@H](O)[C@H](OC[C@@]23C[C@@H]4[C@H](C)CC[C@H]4[C@@]4(C=O)CC2C=C(C(C)C)[C@@]34C(=O)O)O[C@@H]1C [Sordarin]	381.1 ± 5.0
C[C@@H]1CN(c2c(F)c(N)c3c(=O)c(C(=O)O)cn(C4CC4)c3c2F)C[C@H](C)N1 [Sparfloxacin]	273.2 ± 3.0
CN[C@@H]1[C@H](O)[C@H](NC)[C@H]2O[C@@]3(O)C(=O)C[C@@H](C)O[C@H]3O[C@@H]2[C@H]1O [Spectinomycin]	231.6 ± 5.0
N=C(N)NCCCC[C@H](O)CC(=O)NC(O)C(=O)NCCCCNCCCN (stereo partly shown) [Spergualin]	304.4 ± 7.0
CN[C@@H]1C[C@H]2O[C@@](C)([C@@H]1OC)n1c3ccccc3c3c4c(c5c6ccccc6n2c5c31)C(=O)NC4 [Staurosporine (Staurosporine), Staurosporine]	298.7 ± 7.0
[H]/N=C(/N)N[C@H]1[C@H](O)[C@@H](O)[C@H](O[C@@H]2O[C@@H](C)[C@](O)(C=O)[C@H]2O[C@@H]2O[C@@H](CO)[C@H](O)[C@@H](O)[C@@H]2NC)[C@@H](N/C(N)=N\[H])[C@@H]1O [Streptomycin]	293.4 ± 7.0
COC1=C(N)C(=O)c2nc(-c3nc(C(=O)O)c(C)c(-c4ccc(OC)c(OC)c4O)c3N)ccc2C1=O [Streptonigrin (Bruneomycin, Nigrin), Streptonigrin]	322.2 ± 5.0

same assay, conditions: Table 2, anticancer drugs; cited from earlier work

SMILES	Molar volume [cm^3]
Cc1c(C(=O)Nc2ccc(N3C[C@@H](C)O[C@@H](C)C3)nc2)cccc1-c1ccc(OC(F)(F)F)cc1 [Odomzo (Sonidegib), Sonidegib]	386.7 ± 3.0
COC(=O)C[C@](O)(CCCC(C)(C)O)C(=O)O[C@@H]1C(OC)=C[C@]23CCCN2CCc2cc4c(cc2[C@H]13)OCO4 [Omacetaxine Mepesuccinate]	408.4 ± 5.0
C=CC(=O)Nc1cc(Nc2nccc(-c3cn(C)c4ccccc34)n2)c(OC)cc1N(C)CCN(C)C [Osimertinib (Tagrisso), Osimertinib]	418.4 ± 7.0
Nc1cccc2c1C(=O)N(C1CCC(=O)NC1=O)C2=O (stereo not shown) [Pomalidomide]	173.9 ± 3.0
CNC(=O)c1cc(Oc2ccc(NC(=O)Nc3ccc(Cl)c(C(F)(F)F)c3)c(F)c2)ccn1 [Regorafenib]	323.6 ± 3.0
C[C@@H](OC[C@@]1(c2ccccc2)CC[C@]2(CCC(=O)N2)CN1)c1cc(C(F)(F)F)cc(C(F)(F)F)c1 [Rolapitant Hydrochloride]	373.3 ± 5.0
N#CC[C@H](C1CCCC1)n1cc(-c2ncnc3[nH]ccc23)cn1 [Ruxolitinib phosphate]	218.6 ± 7.0
Nc1nc2nc[nH]c2c(=S)[nH]1 [Tabloid (Thioguanine), Thioguanine]	96.4 ± 3.0
CO[C@H]1C[C@@H]2CC[C@@H](C)[C@@](O)(O2)C(=O)C(=O)N2CCCC[C@H]2C(=O)O[C@H]([C@H](C)C[C@@H]2CC[C@@H](OC(=O)C(C)(CO)CO)[C@H](OC)C2)CC(=O)[C@H](C)/C=C(\C)[C@@H](O)[C@@H](OC)C(=O)[C@H](C)C[C@H](C)/C=C/C=C/C=C/1C [Temsirolimus (Torisel), Temsirolimus]	853.1 ± 5.0
O=C1CCC(N2C(=O)c3ccccc3C2=O)C(=O)N1 (stereo not shown) [Thalidomide]	171.7 ± 3.0
COc1cc2c(cc1O)CCN[C@]21CS[C@@H]2c3c(OC(C)=O)c(C)c4c(c3[C@H](COC1=O)N1[C@@H]2[C@H]2c3c(cc(C)c(OC)c3O)C[C@@H]([C@@H]1O)N2C)OCO4 [Trabectedin (Yondelis), Trabectedin]	489.2 ± 5.0
CC(=O)OC[C@H]1O[C@@H](n2ccc(=O)[nH]c2=O)[C@H](OC(C)=O)[C@@H]1OC(C)=O [Uridine Triacetate (Vistogard), Uridine Triacetate]	257.5 ± 5.0
CCCCC(=O)OCC(=O)[C@]1(O)Cc2c(O)c3c(c(O)c2[C@@H](O[C@H]2C[C@H](NC(=O)C(F)(F)F)[C@H](O)[C@H](C)O2)C1)C(=O)c1c(OC)cccc1C3=O [Valrubicin]	469.8 ± 5.0

same assay, conditions: Table 3, antifungal drugs and other molecules; cited from earlier work

SMILES	Molar volume [cm^3]
CC[C@@H]1/C=C/C=C/C[C@H](C)[C@H](O)[C@](C)(O)C(=O)[C@H](C)[C@@H](O)[C@H](C)C(=O)[C@H](C)[C@@H](O)[C@H](C)/C=C/C(=O)O[C@H]2[C@@H](C)[C@@H](CC1)O[C@@]1(CC[C@@H](C)[C@@H](C[C@H](C)O)O1)[C@@H]2C [Oligomycin A]	688.2 ± 5.0
CC(C)CCCCCCCCC[C@@H]1CC(=O)N[C@@H](CCC(=O)O)C(=O)N[C@@H](CC(C)C)C(=O)N[C@H](CC(C)C)C(=O)N[C@@H](C(C)C)C(=O)N[C@@H](CC(=O)O)C(=O)N[C@H](CC(C)C)C(=O)N[C@@H](CC(C)C)C(=O)O1 [Surfactin] (EL[dL]VD[dL]L; linker N-C via X1)	998.6 ± 3.0
CN(C/C=C/C#CC(C)(C)C)Cc1cccc2ccccc12 [Terbinafine]	289.1
CC(C)N1CCN(c2ccc(OCC3COC(Cn4cncn4)(c4ccc(Cl)cc4Cl)O3)cc2)CC1 (stereo not shown) [Terconazole]	391.5 ± 7.0
Cc1ccc(C(C)C)c(O)c1 [Thymol (5-Methyl-2-isopropylphenol), 5-Methyl-2-isopropylphenol]	150.2
Clc1ccc(C(Cn2ccnc2)OCc2ccsc2Cl)c(Cl)c1 (stereo not shown) [Tioconazole]	269.0 ± 7.0
Cc1cccc(N(C)C(=S)Oc2ccc3ccccc3c2)c1 [Tolnaftate]	251.1 ± 3.0
Nc1ncnc2c1ccn2[C@@H]1O[C@H](CO)[C@@H](O)[C@H]1O [Tubercidin]	139.5 ± 7.0
